The nature of the data set: Solubility (dissolved, centrifuged, HPLC peak integrated relative to a tyrosine standard). It is filed as physicochemical. The text has this:
Pure three-mer scaffolds and five-mer scaffolds with extended rod-like structures in useful amounts have been synthesized. Three units of building block 1:pro4(2S4S) (Sequence 1) were assembled to form the molecular rod 19 using sequential solid phase synthesis on a 46 μmole scale (Scheme 4). The synthesis took place on an AM resin with a Rink Amide linker available from Novabiochem. […] After coupling three monomers, an Fmoc-Tyr(t-Bu)-OAt residue was coupled to increase the hydrophobicity of the final scaffold so that it would bind to a C18 column. After removal of the tyrosine Fmoc group, the amine terminus rapidly attacked the adjacent methyl ester to form a diketopiperazine […] (indicated in the sequence as cyclo-(Tyr)). The flexible oligomer 17 was cleaved from the resin and its mass was confirmed by reverse phase liquid chromatography with mass spectrometry (RP-LCMS). The carboxybenzyl (Cbz) groups were then removed by hydrogenolysis to obtain 18. The flexible oligomer 18 was converted into the rigidified scaffold 19 through the parallel formation of two diketopiperazine rings by exposure to 20% piperidine/DMF over 48 hours at 4° C.[25] […] Solubility was measured by dissolving the compound in 0.1% TFA, centrifuging it, injecting the solution into an HPLC and integrating the resulting peak relative to a tyrosine standard. […]

≈ marks a conversion by molar mass, not a printed value. Like-named read-outs stand apart in the source and are kept apart here. Where only a bound is given, the exact number is not on record here.

`NC(=O)[C@@H]1C[C@@]2(CN1)NC(=O)[C@@H]1C[C@@]3(CN1C2=O)NC(=O)[C@@H]1C[C@@]2(CN1C3=O)NC(=O)[C@H](Cc1ccc(O)cc1)NC2=O` [scaffold 19]: the solubility (water, read-out: soluble in water) was > 5000 µg/mL.

Turning to `COC(=O)[C@]1(N)C[C@H]2C(=O)N[C@]3(C[C@H]4C(=O)N[C@]5(C[C@H]6C(=O)N[C@]7(C[C@H]8C(=O)N[C@@]9(CN[C@H](C(=O)N[C@@H](Cc%10ccc(O)cc%10)C(N)=O)C9)C(=O)N8C7)C(=O)N6C5)C(=O)N4C3)C(=O)N2C1` [scaffold 20], for the setting “10% D2O/H2O, unpurified material, read-out: soluble in 10% D2O/H2O”, the solubility was 5000 µg/mL (≈ 5.54 mM).

The record behind these values is patent publication US20040077879A1, “Bis (amino acid) molecular scaffolds” (priority 2002, published 2004).
